Test results: PubChem BioAssay AID1918958 (Molecular Pharmacology Branch, DTP, NCI, 2023)
Several values for one entry are separate records, joined by “and”; a condition that tells them apart may be missing. Identical values can stand only once.

Test system: NCI-H196 complex spheroid viability
Test: Anticancer human tumor NCI-H196 cell line growth inhibition [LSD1];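 note: spheroids exposed to agents for 7 days before readout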;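 for viability, T/C: 100% = DMSO vehicle control viability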
Conditions: for viability, T/C: stronger effect = lower value
In short: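 Multicellular complex spheroids of tumor cells with human endothelial cells (HUVEC) and mesenchymal stem cells; the LSD1 inhibitor iadademstat was combined with standard-of-care or investigational agents. Top concentration at or near clinical Cmax, half-log dilutions; final DMSO ≤0.25%.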

[1] = curve of first compound, second compound 0.1 µM
[2] = curve of first compound, second compound 0.316 µM
[3] = curve of first compound, second compound 1 µM
[4] = curve of first compound, second compound 3.16 µM
[5] = curve of first compound, second compound 10 µM
[6] = second compound 0.1 µM, first compound 0.0316 µM
[7] = second compound 0.1 µM, first compound 0.1 µM
[8] = second compound 0.316 µM, first compound 0.0316 µM
[9] = second compound 0.316 µM, first compound 0.1 µM
[10] = second compound 1 µM, first compound 0.0316 µM
[11] = second compound 1 µM, first compound 0.1 µM
[12] = second compound 3.16 µM, first compound 0.0316 µM
[13] = second compound 3.16 µM, first compound 0.1 µM
[14] = second compound 10 µM, first compound 0.0316 µM
[15] = second compound 10 µM, first compound 0.1 µM
[16] = second compound 0.1 µM, first compound 0.00949 µM
[17] = second compound 0.1 µM, first compound 0.03 µM
[18] = second compound 0.1 µM, first compound 0.0949 µM
[19] = second compound 0.1 µM, first compound 0.3 µM
[20] = second compound 0.316 µM, first compound 0.00949 µM
[21] = second compound 0.316 µM, first compound 0.03 µM
[22] = second compound 0.316 µM, first compound 0.0949 µM
[23] = second compound 0.316 µM, first compound 0.3 µM
[24] = second compound 1 µM, first compound 0.00949 µM
[25] = second compound 1 µM, first compound 0.03 µM
[26] = second compound 1 µM, first compound 0.0949 µM
[27] = second compound 1 µM, first compound 0.3 µM
[28] = second compound 3.16 µM, first compound 0.00949 µM
[29] = second compound 3.16 µM, first compound 0.03 µM
[30] = second compound 3.16 µM, first compound 0.0949 µM
[31] = second compound 3.16 µM, first compound 0.3 µM
[32] = second compound 10 µM, first compound 0.00949 µM
[33] = second compound 10 µM, first compound 0.03 µM
[34] = second compound 10 µM, first compound 0.0949 µM
[35] = second compound 10 µM, first compound 0.3 µM

CC(C)CC(NC(=O)C(Cc1ccccc1)NC(=O)c1cnccn1)B(O)O (stereo unspecified) + NC1CC1c1ccc(-c2cccc(O)c2)cc1
IC50 [1]: 0.00036 µM | IC50 [2]: 0.000373 µM | IC50 [3]: 0.000392 µM | IC50 [4]: 0.000375 µM | IC50 [5]: < 0.000316 µM | viability, T/C (second compound 0.1 µM, first compound 0.000316 µM): 55.9% | viability, T/C (second compound 0.1 µM, first compound 0.001 µM): 3.85% | viability, T/C (second compound 0.1 µM, first compound 0.00316 µM): 4.59% | viability, T/C (second compound 0.1 µM, first compound 0.01 µM): 4.04% | viability, T/C [6]: 1.83% | viability, T/C [7]: 0.7% | viability, T/C (second compound 0.316 µM, first compound 0.000316 µM): 57.6% | viability, T/C (second compound 0.316 µM, first compound 0.001 µM): 4.64% | viability, T/C (second compound 0.316 µM, first compound 0.00316 µM): 3.15% | viability, T/C (second compound 0.316 µM, first compound 0.01 µM): 2.27% | viability, T/C [8]: 1.73% | viability, T/C [9]: 0.55% | viability, T/C (second compound 1 µM, first compound 0.000316 µM): 60.4% | viability, T/C (second compound 1 µM, first compound 0.001 µM): 4.41% | viability, T/C (second compound 1 µM, first compound 0.00316 µM): 3.18% | viability, T/C (second compound 1 µM, first compound 0.01 µM): 2.18% | viability, T/C [10]: 1.28% | viability, T/C [11]: 0.5% | viability, T/C (second compound 3.16 µM, first compound 0.000316 µM): 58.1% | viability, T/C (second compound 3.16 µM, first compound 0.001 µM): 3.39% | viability, T/C (second compound 3.16 µM, first compound 0.00316 µM): 2.47% | viability, T/C (second compound 3.16 µM, first compound 0.01 µM): 1.72% | viability, T/C [12]: 1.87% | viability, T/C [13]: 0.31% | viability, T/C (second compound 10 µM, first compound 0.000316 µM): 42.5% | viability, T/C (second compound 10 µM, first compound 0.001 µM): 2.54% | viability, T/C (second compound 10 µM, first compound 0.00316 µM): 2.01% | viability, T/C (second compound 10 µM, first compound 0.01 µM): 1.21% | viability, T/C [14]: 0.62% | viability, T/C [15]: 0.38%

CCN(c1cc(-c2ccc(CN3CCOCC3)cc2)cc(C(=O)NCc2c(C)cc(C)[nH]c2=O)c1C)C1CCOCC1 + NC1CCC(NC2CC2c2ccccc2)CC1
IC50 [1]: > 3 µM | IC50 [2]: > 3 µM | IC50 [3]: > 3 µM | IC50 [4]: > 3 µM | IC50 [5]: > 3 µM | viability, T/C [16]: 100% | viability, T/C [17]: 95.6% | viability, T/C [18]: 93.1% | viability, T/C [19]: 103% | viability, T/C (second compound 0.1 µM, first compound 0.949 µM): 96.4% | viability, T/C (second compound 0.1 µM, first compound 3 µM): 101% | viability, T/C [20]: 99.5% | viability, T/C [21]: 93.8% | viability, T/C [22]: 101% | viability, T/C [23]: 100% | viability, T/C (second compound 0.316 µM, first compound 0.949 µM): 104% | viability, T/C (second compound 0.316 µM, first compound 3 µM): 110% | viability, T/C [24]: 92.5% | viability, T/C [25]: 93% | viability, T/C [26]: 98.7% | viability, T/C [27]: 95.2% | viability, T/C (second compound 1 µM, first compound 0.949 µM): 99.6% | viability, T/C (second compound 1 µM, first compound 3 µM): 103% | viability, T/C [28]: 87.8% | viability, T/C [29]: 91.4% | viability, T/C [30]: 95.3% | viability, T/C [31]: 95.6% | viability, T/C (second compound 3.16 µM, first compound 0.949 µM): 91.6% | viability, T/C (second compound 3.16 µM, first compound 3 µM): 99.9% | viability, T/C [32]: 104% | viability, T/C [33]: 93.3% | viability, T/C [34]: 94.6% | viability, T/C [35]: 105% | viability, T/C (second compound 10 µM, first compound 0.949 µM): 86.7% | viability, T/C (second compound 10 µM, first compound 3 µM): 101%

CC[C@@]1(O)C(=O)OCc2c1cc1n(c2=O)Cc2cc3c(CN(C)C)c(O)ccc3nc2-1
viability, T/C (compound 0.000316 µM): 98.3% and 97.6% | viability, T/C (compound 0.001 µM): 99% and 93.1% | viability, T/C (compound 0.00316 µM): 95.1% and 99.2% | viability, T/C (compound 0.01 µM): 109% and 97.3% | viability, T/C (compound 0.0316 µM): 110% and 115% | viability, T/C (compound 0.1 µM): 106% and 102% | IC50 (curve of compound): > 0.1 µM

CC1COCCN1c1cc(C2(S(C)(=N)=O)CC2)nc(-c2ccnc3[nH]ccc23)n1 (stereo unspecified)
viability, T/C (compound 0.0316 µM): 96.2% and 97.2% | viability, T/C (compound 0.1 µM): 100% and 94.8% | viability, T/C (compound 0.316 µM): 91.8% and 98.8% | viability, T/C (compound 1 µM): 84.6% and 84.2% | viability, T/C (compound 3.16 µM): 77.8% and 76.2% | viability, T/C (compound 10 µM): 72.7% and 74.6% | IC50 (curve of compound): > 10 µM

Nc1ncn(C2CC(O)C(CO)S2)c(=O)n1 (stereo unspecified) + NC1CC1c1ccc(-c2cccc(O)c2)cc1
IC50 [1]: > 0.3 µM | IC50 [2]: > 0.3 µM | IC50 [3]: > 0.3 µM | IC50 [4]: > 0.3 µM | IC50 [5]: > 0.3 µM | viability, T/C (second compound 0.1 µM, first compound 0.000949 µM): 98.2% | viability, T/C (second compound 0.1 µM, first compound 0.003 µM): 105% | viability, T/C [16]: 108% | viability, T/C [17]: 101% | viability, T/C [18]: 108% | viability, T/C [19]: 102% | viability, T/C (second compound 0.316 µM, first compound 0.000949 µM): 107% | viability, T/C (second compound 0.316 µM, first compound 0.003 µM): 111% | viability, T/C [20]: 112% | viability, T/C [21]: 113% | viability, T/C [22]: 112% | viability, T/C [23]: 113% | viability, T/C (second compound 1 µM, first compound 0.000949 µM): 103% | viability, T/C (second compound 1 µM, first compound 0.003 µM): 110% | viability, T/C [24]: 113% | viability, T/C [25]: 109% | viability, T/C [26]: 134% | viability, T/C [27]: 116% | viability, T/C (second compound 3.16 µM, first compound 0.000949 µM): 101% | viability, T/C (second compound 3.16 µM, first compound 0.003 µM): 102% | viability, T/C [28]: 106% | viability, T/C [29]: 99.3% | viability, T/C [30]: 117% | viability, T/C [31]: 119% | viability, T/C (second compound 10 µM, first compound 0.000949 µM): 101% | viability, T/C (second compound 10 µM, first compound 0.003 µM): 109% | viability, T/C [32]: 103% | viability, T/C [33]: 102% | viability, T/C [34]: 103% | viability, T/C [35]: 99.5%

CC(C)c1c(-c2ccccc2)nc2c(C#N)c[nH]n2c1=O
viability, T/C (compound 0.0316 µM): 107% and 96.4% | viability, T/C (compound 0.1 µM): 108% and 100% | viability, T/C (compound 0.316 µM): 98.3% and 93.8% | viability, T/C (compound 1 µM): 101% and 91% | viability, T/C (compound 3.16 µM): 99.7% and 94.1% | viability, T/C (compound 10 µM): 88.7% and 84.2% | IC50 (curve of compound): > 10 µM

CC1(C)CCC(CN2CCN(c3ccc(C(=O)NS(=O)(=O)c4ccc(NCC5CCOCC5)c([N+](=O)[O-])c4)c(Oc4cnc5[nH]ccc5c4)c3)CC2)=C(c2ccc(Cl)cc2)C1 + NC1CCC(NC2CC2c2ccccc2)CC1
IC50 [1]: 5.15 µM | IC50 [2]: 5.19 µM | IC50 [3]: 5.88 µM | IC50 [4]: 5.6 µM | IC50 [5]: 6.02 µM | viability, T/C [6]: 98.8% | viability, T/C [7]: 104% | viability, T/C (second compound 0.1 µM, first compound 0.316 µM): 96.8% | viability, T/C (second compound 0.1 µM, first compound 1 µM): 97.8% | viability, T/C (second compound 0.1 µM, first compound 3.16 µM): 76% | viability, T/C (second compound 0.1 µM, first compound 10 µM): 14.6% | viability, T/C [8]: 107% | viability, T/C [9]: 106% | viability, T/C (second compound 0.316 µM, first compound 0.316 µM): 98% | viability, T/C (second compound 0.316 µM, first compound 1 µM): 98% | viability, T/C (second compound 0.316 µM, first compound 3.16 µM): 78.3% | viability, T/C (second compound 0.316 µM, first compound 10 µM): 13.2% | viability, T/C [10]: 101% | viability, T/C [11]: 103% | viability, T/C (second compound 1 µM, first compound 0.316 µM): 101% | viability, T/C (second compound 1 µM, first compound 1 µM): 106% | viability, T/C (second compound 1 µM, first compound 3.16 µM): 89.1% | viability, T/C (second compound 1 µM, first compound 10 µM): 16.5% | viability, T/C [12]: 109% | viability, T/C [13]: 104% | viability, T/C (second compound 3.16 µM, first compound 0.316 µM): 95.4% | viability, T/C (second compound 3.16 µM, first compound 1 µM): 102% | viability, T/C (second compound 3.16 µM, first compound 3.16 µM): 82.8% | viability, T/C (second compound 3.16 µM, first compound 10 µM): 16.6% | viability, T/C [14]: 104% | viability, T/C [15]: 101% | viability, T/C (second compound 10 µM, first compound 0.316 µM): 99.2% | viability, T/C (second compound 10 µM, first compound 1 µM): 103% | viability, T/C (second compound 10 µM, first compound 3.16 µM): 86.4% | viability, T/C (second compound 10 µM, first compound 10 µM): 21%
